Literature values in PubChem BioAssay AID1259409 (Chemical Carcinogenesis Research Information System (CCRIS), 2018).
Where “and” joins values, the source holds several entries; their conditions need not be identical. Identical values can stand only once.

System: rodent chemically induced tumor inhibition, incidence and multiplicity
Test: CCRIS tumor inhibitor studies

SMILES: CC(C)=CCC/C(C)=C/Cc1cc2ccc(=O)oc2cc1O
- tumour outcome (control, treated, inhibition, significance) (Carcinogen: 7,12-DIMETHYLBENZ[A]ANTHRACENE, 57-97-6, Dose [Inhibitor]: 0, 400 NMOL ONCE APPLIED 5 MIN PRIOR TO CARCINOGEN DOSE (STUDY DURATION: 25 WK), Route [Inhibitor]: DERMAL, Species: MOUSE, Strain/Sex: SENCAR, Target Tissue: Type of Lesion: SKIN: PAPILLOMA, Dose [Carcinogen]: 10 NMOL ONCE, Promoter: 12-O-TETRADECANOYLPHORBOL-13-ACETATE, 16561-29-8): 96%, 96%, 0%, not significant
- tumour outcome (control, treated, inhibition, significance) (Carcinogen: 7-12-DIMETHYLBENZ[A]ANTHRACENE, 57-97-6, Dose [Inhibitor]: 0, 1200 NMOL ONCE APPLIED 5 MIN PRIOR TO CARCINOGEN DOSE (STUDY DURATION: 25 WK), Route [Inhibitor]: DERMAL, Species: MOUSE, Strain/Sex: SENCAR, Target Tissue: Type of Lesion: SKIN: PAPILLOMA, Dose [Carcinogen]: 10 NMOL ONCE, Promoter: 12-O-TETRADECANOYLPHORBOL-13-ACETATE, 16561-29-8): 93%, 96%, -3%, not significant
- tumour outcome (control, treated, inhibition, significance) (Carcinogen: BENZO[A]PYRENE, 50-32-8, Dose [Inhibitor]: 0, 400 NMOL ONCE APPLIED 5 MIN PRIOR TO CARCINOGEN DOSE (STUDY DURATION: 25 WK), Route [Inhibitor]: DERMAL, Species: MOUSE, Strain/Sex: SENCAR, Target Tissue: Type of Lesion: SKIN: PAPILLOMA, Dose [Carcinogen]: 200 NMOL ONCE, Promoter: 12-O-TETRADECANOYLPHORBOL-13-ACETATE, 16561-29-8): 91%, 91%, 0%, not significant
- tumour outcome (control, treated, inhibition, significance) (Carcinogen: BENZO[A]PYRENE, 50-32-8, Dose [Inhibitor]: 0, 1200 NMOL ONCE APPLIED 5 MIN PRIOR TO CARCINOGEN DOSE (STUDY DURATION: 25 WK), Route [Inhibitor]: DERMAL, Species: MOUSE, Strain/Sex: SENCAR, Target Tissue: Type of Lesion: SKIN: PAPILLOMA, Dose [Carcinogen]: 200 NMOL ONCE, Promoter: 12-O-TETRADECANOYLPHORBOL-13-ACETATE, 16561-29-8): 92%, 93%, -1%, not significant

SMILES: CCC(C)SSC(C)CC (configuration not stated)
- tumour outcome (control, treated, inhibition, significance) (Carcinogen: BENZO[A]PYENE, 50-32-8, Dose [Inhibitor]: 0.06 MMOL/G DIET DAILY FOR 6 WK CONCURRENT WITH CARCINOGEN TREATMENT FOLLOWED BY 14 WK ON STANDARD DIET (STUDY DURATION:, Route [Inhibitor]: ORAL, Species: MOUSE, Strain/Sex: ICR/FEMALE, Target Tissue: Type of Lesion: FORESTOMACH: NEOPLASM, Dose [Carcinogen]: 0.3 MG/G IN DIET DAILY FOR 6 WK, Promoter: NONE USED): 40%, 41%, -3%, not significant

SMILES: CCC[Se]C#N
- tumour outcome (control, treated, inhibition, significance) (Carcinogen: 7,12-DIMETHYLBENZ[A]ANTHRACENE, 57-97-6, Dose [Inhibitor]: 0.1, 2 PPM (SELENIUM) IN DIET FOR 3 WK BEGINNING 2 WK PRIOR TO CARCINOGEN DOSE (STUDY DURATION: 25 WK), Route [Inhibitor]: ORAL, Species: RAT, Strain/Sex: SPRAGUE-DAWLEY/FEMALE, Target Tissue: Type of Lesion: MAMMARY GLAND: TUMOR, Dose [Carcinogen]: 10 MG ONCE, Promoter: NONE USED): 25/30 (83%), 13/30 (43%), 48%, p<0.05

SMILES: COc1ccc(C(c2ccc(OC)cc2)C(Cl)(Cl)Cl)cc1
- outcome (Carcinogen: N-NITROSOBIS(2-HYDROXYPROPYL)AMINE, 53609-64-6, Dose [Inhibitor]: 0, 1000 PPM IN DIET FOR 27 WK BEGINNING 9 WK POST CARCINOGEN TREATMENT (STUDY DURATION: 37 WK), Route [Inhibitor]: ORAL, Species: RAT, Strain/Sex: F344/FEMALE, Target Tissue: Type of Lesion: THYROID GLAND: ADENOMA, Dose [Carcinogen]: 2000 MG/KG BW 1 WK POST BILATERAL OVARIECTOMY, Promoter: SULFADIMETHOXINE, 122-11-2): 0/12 (0%), 2/15 (13%), not significant
- tumour outcome (control, treated, inhibition, significance) (Carcinogen: N-NITROSOBIS(2-HYDROXYPROPYL)AMINE, 53609-64-6, Dose [Inhibitor]: 0, 1000 PPM IN DIET FOR 27 WK BEGINNING 9 WK POST CARCINOGEN TREATMENT (STUDY DURATION: 37 WK), Route [Inhibitor]: ORAL, Species: RAT, Strain/Sex: F344/FEMALE, Target Tissue: Type of Lesion: THYROID GLAND: CARCINOMA, Dose [Carcinogen]: 2000 MG/KG BW 1 WK POST BILATERAL OVARIECTOMY, Promoter: SULFADIMETHOXINE, 122-11-2): 10/12 (83%), 6/15 (40%), 52%, p<0.05

SMILES: CC(C)(C)c1ccccc1O
- tumour outcome (control, treated, inhibition, significance) (Carcinogen: BENZO[A]PYRENE, 50-32-8, Dose [Inhibitor]: 0.03 MMOL/G OF DIET DAILY STARTING 7 D BEFORE AND CONTINUING THROUGH 3 D AFTER CARCINOGEN TREATMENT FOLLOWED BY OBSERVAT, Route [Inhibitor]: ORAL, Species: MOUSE, Strain/Sex: ICR/FEMALE, Target Tissue: Type of Lesion: FORESTOMACH: NEOPLASM, Dose [Carcinogen]: 1 MG IN 0.2 ML CORN OIL 2/WK FOR 4 WK, Promoter: NONE USED): 94%, 85%, 10%, not significant and 100%, 95%, 5%, not significant

SMILES: C[C@@H]1O[C@@H](OC[C@H]2O[C@@H](Oc3c(-c4ccc(O)c(O)c4)oc4cc(O)cc(O)c4c3=O)[C@H](O)[C@@H](O)[C@@H]2O)[C@H](O)[C@H](O)[C@H]1O
- tumour outcome (control, treated, inhibition, significance) (Carcinogen: 7,12-DIMETHYLBENZ[A]ANTHRACENE, 57-97-6, Dose [Inhibitor]: 0, 0.2 ML OF A 1% SOLUTION 1/D FOR 2 WK APPLIED 5 MIN POST EACH CARCINOGEN DOSE THEN 1/D FOR 4 WK DURING PROMOTION STAGE, Route [Inhibitor]: DERMAL, Species: MOUSE, Strain/Sex: SWISS/MALE, Target Tissue: Type of Lesion: SKIN: PAPILLOMA, Dose [Carcinogen]: 0.2 ML OF A 0.24% SOLUTION IN DMSO 1/D FOR 2 WK, Promoter: CROTON OIL, 8001-28-3): 23/23 (100%), 14/24 (58%), 42%, not calculated
- tumour outcome (control, treated, inhibition, significance) (Carcinogen: 7,12-DIMETHYLBENZ[A]ANTHRACENE, 57-97-6, Dose [Inhibitor]: 0, 0.2 ML OF A 1% SOLUTION 1/D FOR 2 WK APPLIED 5 MIN PRIOR TO EACH CARCINOGEN DOSE (STUDY DURATION: 20 WK), Route [Inhibitor]: DERMAL, Species: MOUSE, Strain/Sex: SWISS/MALE, Target Tissue: Type of Lesion: SKIN: PAPILLOMA, Dose [Carcinogen]: 0.2 ML OF A 0.24% SOLUTION IN DMSO 1/D FOR 2 WK, Promoter: CROTON OIL, 8001-28-3): 23/23 (100%), 21/23 (91%), 9%, not calculated
- tumour outcome (control, treated, inhibition, significance) (Carcinogen: AZOXYMETHANE, 25843-45-2, Dose [Inhibitor]: 0, 1% IN DIET FOR DURATION OF STUDY (STUDY DURATION: 48 WK), Route [Inhibitor]: ORAL, Species: MOUSE, Strain/Sex: CF-1/FEMALE, Target Tissue: Type of Lesion: COLON: TUMOR, Dose [Carcinogen]: 10 MG/KG BW 3 TIMES, Promoter: NONE USED): 8/32 (25%), 9/35 (26%), -4%, not significant
- tumour outcome (control, treated, inhibition, significance) (Carcinogen: AZOXYMETHANE, 25843-45-2, Dose [Inhibitor]: 0, 4% IN DIET FOR DURATION OF STUDY (STUDY DURATION: 48 WK), Route [Inhibitor]: ORAL, Species: MOUSE, Strain/Sex: CF-1/FEMALE, Target Tissue: Type of Lesion: COLON: TUMOR, Dose [Carcinogen]: 10 MG/KG BW 3 TIMES, Promoter: NONE USED): 8/32 (25%), 3/31 (10%), 60%, not significant

SMILES: Nc1nc(N)c2nc(CNc3ccc(C(=O)N[C@@H](CCC(=O)O)C(=O)O)cc3)cnc2n1
- tumour outcome (control, treated, inhibition, significance) (Carcinogen: URETHANE, 51-79-6, Dose [Inhibitor]: 0.25 UG/G BW IN DISTILLED WATER 1/D FOR 3 D FOLLOWED BY 0.5 UG/G BW ONCE ADMINISTERED AT SAME TIME AS CARCINOGEN TREATME, Route [Inhibitor]: INTRAPERITONEAL, Species: MOUSE, Strain/Sex: SWR/MALE, Target Tissue: Type of Lesion: LUNG: ADENOMA, Dose [Carcinogen]: 0.5 MG/G BW IN DISTILLED WATER ONCE AT 13 WK OF AGE, Promoter: NONE USED): 90%, 74%, 18%, not significant
- tumour outcome (control, treated, inhibition, significance) (Carcinogen: URETHANE, 51-79-6, Dose [Inhibitor]: 0.25 UG/G BW IN DISTILLED WATER 1/D FOR 3 D FOLLOWED BY 0.5 UG/G BW ONCE ADMINISTERED AT SAME TIME AS CARCINOGEN TREATME, Route [Inhibitor]: INTRAPERITONEAL, Species: MOUSE, Strain/Sex: SWR/MALE, Target Tissue: Type of Lesion: LUNG: ADENOMA, Dose [Carcinogen]: 0.5 MG/G BW IN DISTILLED WATER ONCE AT 15 WK OF AGE, Promoter: NONE USED): 82%, 90%, -10%, not significant

SMILES: CC1=C(/C=C/C(C)=C/C=C/C(C)=C/C(=O)NCCCCO)C(C)(C)CCC1
- tumour outcome (control, treated, inhibition, significance) (Carcinogen: N-BUTYL-N-(4-HYDROXYBUTYL)NITROSAMINE, 3817-11-6, Dose [Inhibitor]: 1.5 MMOL/KG DIET DAILY FOR 133 D STARTING ONE WK AFTER THE FINAL CARCINOGEN DOSE (STUDY DURATION: 190 D), Route [Inhibitor]: ORAL, Species: MOUSE, Strain/Sex: BDF/MALE, Target Tissue: Type of Lesion: URINARY BLADDER: TRANSITIONAL CELL CARCINOMA, Dose [Carcinogen]: 7.5 MG 1/WK FOR 8 WK, Promoter: NONE USED): 21/100 (21%), 21/100 (21%), 0%, not significant
- tumour outcome (control, treated, inhibition, significance) (Carcinogen: N-BUTYL-N-(4-HYDROXYBUTYL)NITROSAMINE, 3817-11-6, Dose [Inhibitor]: 1.5 MMOL/KG IN DIET FOR 133 D STARTING 1 WK AFTER LAST CARCINOGEN DOSE (STUDY DURATION: 190 D), Route [Inhibitor]: ORAL, Species: MOUSE, Strain/Sex: DBF1/MALE, Target Tissue: Type of Lesion: URINARY BLADDER: TRANSITIONAL CELL CARCINOMA, Dose [Carcinogen]: 7.5 MG 1/WK FOR 8 WK, Promoter: NONE USED): 21/100 (21%), 21/100 (21%), 0%, not significant
